The results in this text go back to US8063104B2, “Guanidine derivatives as inhibitors of DDAH” (UCL Business PLC, priority 2004, dated 2011).

One data set concerns the target T1, DDAH (Rattus norvegicus, UniProt O08557).
T1 construct: Rat kidney was homogenized in PBS; from tissue; host or cells: rat kidney homogenate, high-speed supernatant
In words: DDAH activity assay (rat kidney lysate, [14C]L-NMMA to [14C]citrulline). It is filed as biochemical. The conditions noted are these: for Inhibition at 1 mM, % / inhibition at 1000 µM: 1 mM compound, [14C]L-NMMA 1 μmol/L, 1 h 37° C.; for Inhibition at 100 μM (%) / inhibition at 100 µM: 100 μM compound. Here is the method:
Rat kidney was homogenized in PBS containing PMSF 1 mM, leupeptin 5 μg/ml, pepstatin 5 μg/ml, chymostatin 5 μg/ml, and the lysate was centrifuged (4000 rpm. 20 min then supernatant further centrifuged for 40000 rpm, 30 min, 4° C.). The supernatants were analyzed for DDAH activity; [^14[…]) was added to the cell lysates (final volume 100 μl) and incubated for 1 h at 37° C. Dowex resin (0.5 ml) at neutral pH was immediately added to samples to terminate the reaction and bind unmetabolized L-NMMA. [^14C]Citrulline formation was determined by scintillation counting (Hewlett Packard).

Another data set concerns the target T2, iNOS (Mus musculus, UniProt P29477).
T2 construct: endogenous in cells; host or cells: RAW cells stimulated with LPS/IFN and TNF
Kind of data set: iNOS activity Greiss assay in stimulated RAW cells. The note with it: Griess NOx, RAW cells stimulated 24 h with LPS/IFN and TNF, compound 0.5 mM, 550 nm; control 0.367 ± 0.021. It is filed as cell-based. Here is the method:
RAW cells were stimulated for 24 h with LPS/IFN and TNF, in the presence of the DDAH inhibitor compounds (0.5 mM). Levels of NOx secreted into the media by the cells were determined by Griess assay: Greiss reagent [1:1 sulfanilamide ([…]) in ortho-phosphoric acid (50%) and N-(1-napthyl)ethylenediamine dihydrochloride (1%)] was added as 100 μl volume to 100 μl cell culture media and the plate was read at 550 nm and analysed in relation to sodium nitrite and nitrate standards.
In general terms: The Griess reaction detects nitrite, a stable product of nitric oxide.

A further data set concerns eNOS. In words: eNOS assay ([14C]arginine conversion). It is filed as biochemical. The note with it: eNOS activity. Here is the method:
Compounds to be tested were added to NOS assay buffer (HEPES 50 mM pH 7.2, FAD 5 μM, FMN 5 μM, BH4 10 μM, NADPH 1 mM, DTT 0.5 mM, CaCl2 1 mM, MgCl2 1 mM, calmodulin 50 nM, [^14C] arginine 100 μM) in a final volume of 100 μl and the reaction was initiated by addition of eNOS (eNOS 3.3. U/reaction, Alexis Biochemicals). Reactions were incubated for 1 h at 37° C. and the reaction was terminated by the addition of Dowex pH 5.5 (0.85 ml) to each tube. Tubes were vortexed and microfuged <12000 g, 5 min. 100 μl of the Dowex supernatant was added to 5 ml scintillation cocktail and was counted in a scintillation counter (Hewlett Packard). The compounds were tested at 1 mM and 0.1 mM concentrations. Activity is expressed as % of control where control contained no inhibitor, n=4. The DDAH inhibitors of the present invention tested had no significant effect on eNOS activity.

Another data set deals with RAW cells. Kind of data set: Cell viability assay (MTT) in RAW cells.
[1] abbreviates: MTT, RAW cells, compound 0.5 mM, 24 h, OD550 nm, control 2.54 ± 0.26.

Read-outs that look alike come from different tables or passages of the source.

T1 sequence (O08557 2-285 limits assumed): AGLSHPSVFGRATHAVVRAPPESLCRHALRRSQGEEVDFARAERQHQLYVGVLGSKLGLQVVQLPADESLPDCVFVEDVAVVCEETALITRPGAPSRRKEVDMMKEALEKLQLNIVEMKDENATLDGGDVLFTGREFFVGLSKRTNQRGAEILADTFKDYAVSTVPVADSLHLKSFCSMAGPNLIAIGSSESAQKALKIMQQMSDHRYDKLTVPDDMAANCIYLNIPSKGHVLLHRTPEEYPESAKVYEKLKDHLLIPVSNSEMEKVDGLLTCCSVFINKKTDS

The term Inhibition denotes the relative decrease from the control value, in per cent. A high value points to a response far below the control. `NC(=NCc1cccs1)NCC[C@H](N)C(=O)O` [(S)-2-Amino-4-(N′-(2-thiophenemethyl)guanidino)butanoic acid]: on DDAH, the “Inhibition at 1 mM, %” value was 34%.
What is called inhibition is the relative decrease from the control value, in per cent. Take `CC(C)N=C(N)NCC[C@H](N)C(=O)O` [Example 1, (S)-2-Amino-4-(N′-isopropylguanidino)butanoic acid]: 1000 µM produced 38% inhibition against DDAH.
For `CCCN=C(N)NCC[C@H](N)C(=O)O` [Example 2, (S)-2-Amino-4-(N′-propylguanidino)butanoic acid], at DDAH, the inhibition at 1000 µM is 41%.
Turning to `NC(=NCc1ccccc1)NCC[C@H](N)C(=O)O` [Example 3, (S)-2-Amino-4-(N′-benzylguanidino)butanoic acid], the inhibition at 1000 µM against DDAH turned out to be 22%.
Turning to `NC(=NC1CCCCC1)NCC[C@H](N)C(=O)O` [Example 4, (S)-2-Amino-4-(N′-cyclohexylguanidino)butanoic acid], on DDAH, the inhibition at 1000 µM was 51%.
`NC(=Nc1ccccc1)NCC[C@H](N)C(=O)O` [Example 5, (S)-2-Amino-4-(N′-phenylguanidino)butanoic acid]: at DDAH, the inhibition at 1000 µM amounted to 65%.
In turn, `COCCN=C(N)NCC[C@H](N)C(=O)O` [Example 6, (S)-2-Amino-4-(N′-(2-methoxyethyl)guanidino)butanoic acid] showed an inhibition at 1000 µM against DDAH of 90%.
Turning to `CCCCCCCCN=C(N)NCC[C@H](N)C(=O)O` [Example 7, (S)-2-Amino-4-(N′-octylguanidino)butanoic acid], 1000 µM produced 27% inhibition at DDAH.
The compound `NC(=NC1CC1)NCC[C@H](N)C(=O)O` [Example 8, (S)-2-Amino-4-(N′-cyclopropylguanidino)butanoic acid] gave an inhibition at 1000 µM on DDAH of 65%.
Turning to `CN(C)CCN=C(N)NCC[C@H](N)C(=O)O` [Example 9, (S)-2-Amino-4-(N′-(2′-dimethylaminoethyl)guanidino)butanoic acid], the “Inhibition at 1 mM, %” value on DDAH is 25%.
For `CC(C)(C)CN=C(N)NCC[C@H](N)C(=O)O` [Example 10], the “Inhibition at 1 mM, %” value at DDAH worked out at 19%.
As to `NC(=NCCOc1ccccc1)NCC[C@H](N)C(=O)O` [Example 11, (S)-2-Amino-4-(N′-(2-phenoxyethyl)guanidino)butanoic acid], at 1000 µM the inhibition on DDAH was 38%.
On DDAH, `CSCCN=C(N)NCC[C@H](N)C(=O)O` [Example 12, (S)-2-Amino-4-(N′-(2-methylthioethyl)guanidino)butanoic acid] gave an inhibition at 1000 µM of 19%.
On the same count and under the same terms, the value for `CC(C)OCCN=C(N)NCC[C@H](N)C(=O)O` [Example 13, (S)-2-Amino-4-(N′-(2-isopropoxyethyl)guanidino)butanoic acid] was 97%.
On to `C=CCN=C(N)NCC[C@H](N)C(=O)O` [Example 14, (S)-2-Amino-4-(N′-allylguanidino)butanoic acid], for which 1000 µM produced 70% inhibition against DDAH.
Consider `N=C(NCC[C@H](N)C(=O)O)N1CCCCC1` [Example 15, (S)-2-Amino-4-[(piperidine-1-carboximidoyl)-amino]butanoic acid], for which, at DDAH, 1000 µM produced 74% inhibition.
On to `N=C(NCC[C@H](N)C(=O)O)N1CCCC1` [Example 16, (S)-2-Amino-4-[(pyrrolidine-1-carboximidoyl)-amino]butanoic acid], for which the inhibition at 1000 µM against DDAH was 79%.
Same read-out and setting: as for `N=C(NCC[C@H](N)C(=O)O)N1CCOCC1` [Example 17, (S)-2-Amino-4-[(morpholine-4-carboximidoyl)-amino]butanoic acid], the figure is 60%.
As to `COCCN=C(N)NCC[C@H](N)C(=O)OC` [Example 22, (S)-2-Amino-4-(N′-(2-methoxyethyl)guanidino)butanoic acid methyl ester], at DDAH, the inhibition at 1000 µM turned out to be 75%. Further, the results for the “OD units drug ± sd” value on iNOS and in the data set on RAW cells were 0.329 ± 0.013 OD units and 2.33 ± 0.19 OD units, respectively. In addition, the entries for the “% of control ± sd” value in the data set with eNOS (0.1 mM compound) and in the data set with eNOS (1 mM compound) were 87.23 ± 18.05 [2] % of control and 84.05 ± 8.09 [4] % of control, respectively.
Consider `CCOC(=O)[C@@H](N)CCNC(N)=NCCOC` [Example 23, (S)-2-Amino-4-(N′-(2-methoxyethyl)guanidino)butanoic acid ethyl ester], for which the inhibition at 1000 µM on DDAH was 44%.
As for `CCCOC(=O)[C@@H](N)CCN(CCOC)C(=N)N` [Example 24, (S)-2-Amino-4-(N-(2-methoxyethyl)guanidino)butanoic acid propyl ester], the “Inhibition at 1 mM, %” value on DDAH was determined as 64%. Besides, the “OD units drug ± sd” value at iNOS amounted to 0.351 ± 0.013 OD units. In addition, the “% of control ± sd” value was 113.5 ± 7.93 [2] % of control in the data set with eNOS (0.1 mM compound) and 93.97 ± 12.93 [4] % of control in the data set with eNOS (1 mM compound).
In turn, `CCCCOC(=O)[C@@H](N)CCNC(N)=NCCOC` [Example 25, (S)-2-Amino-4-(N′-(2-methoxyethyl)guanidino)butanoic acid butyl ester] showed an inhibition at 1000 µM against DDAH of 40%.
Consider `N=C(NCCC[C@H](N)C(=O)O)NCC1CCCO1` (stereo partly drawn) [Example 31, (S)—N^G-((Tetrahydrofuran-2-yl)methyl)-arginine], for which, on DDAH, the “Inhibition at 100 μM (%)” value was found to be 30%.
Turning to `N=C(NCC[C@H](N)C(=O)O)NCC1CCCO1` (stereo partly drawn) [Example 32, (2S)-2-Amino-4-N^G-((tetrahydrofuran-2-yl)methyl)guanidinobutanoic acid], the “Inhibition at 100 μM (%)” value at DDAH is listed as 10%.
Consider `COCCN=C(N)NCC[C@H](N)C(=O)OCc1ccccc1OC` [Example 33, 2-Methoxybenzyl (S)-2-amino-4-[(N′-(2-methoxyethyl))guanidino]butanoate], for which, on DDAH, the inhibition at 100 µM came to 47.4%.
On DDAH, `COCCN=C(N)NCC[C@H](N)C(=O)OCc1ccc(OC)cc1` [Example 34, 4-Methoxybenzyl (S)-2-amino-4-[(N′-(2-methoxyethyl))guanidino]butanoate] came in with an inhibition at 100 µM of 22.1%.
On the same count and under the same terms, the value for `COCCN=C(N)NCC[C@H](N)C(=O)OCc1ccccc1F` [Example 35, 2-Fluorobenzyl (S)-2-amino-4-[(N′-(2-methoxyethyl))guanidino]butanoate] was 39.8%.
For the compound `COCCN=C(N)NCC[C@H](N)C(=O)OCc1ccc(F)c(C(F)(F)F)c1` [Example 36, 3-Trifluoromethyl-4-fluorobenzyl (S)-2-amino-4-[(N′-(2-methoxyethyl))guanidino]butanoate], at DDAH, the inhibition at 100 µM was 50.6%.
The compound `COCCN=C(N)NCC[C@H](N)C(=O)OCc1cccc(Oc2ccccc2)c1` [Example 37, 3-Phenoxybenzyl (S)-2-amino-4-[(N′-(2-methoxyethyl))guanidino]butanoate] showed an inhibition at 100 µM against DDAH of 42.7%.
Same read-out and setting: as for `COCCN=C(N)NCC[C@H](N)C(=O)OCc1cccc(C)c1` [Example 38, 3-Methylbenzyl (S)-2-amino-4-[(N′-(2-methoxyethyl))guanidino]butanoate], the figure is 48.7%; as for `COCCN=C(N)NCC[C@H](N)C(=O)OCc1cccc(C(F)(F)F)c1` [Example 39, 3-Trifluoromethylbenzyl (S)-2-amino-4-[(N′-(2-methoxyethyl))guanidino]butanoate], 45.3%; as for `COCCN=C(N)NCC[C@H](N)C(=O)OCc1cccc(F)c1` [Example 40, 3-Fluorobenzyl (S)-2-amino-4-[(N′-(2-methoxyethyl))guanidino]butanoate], 33.2%.
The compound `COCCN=C(N)NCC[C@H](N)C(=O)OCCOC` [Example 41, 2-Methoxyethyl (S)-2-amino-4-[(N′-(2-methoxyethyl))guanidino]butanoate] yielded an inhibition at 100 µM against DDAH of 59%.
Take `CNC(=N)NCCC[C@H](N)C(=O)O` [L-NMMA, N^G monomethyl-L-arginine, reference compound]: the “OD units drug ± sd” value is 0.121 ± 0.003 OD units at iNOS and 2.22 ± 0.08 OD units in the data set on RAW cells (setting [1]). For the same compound, in the data set on eNOS (1 mM compound), the “% of control ± sd” value is 16.17 ± 15.78 [4] % of control.
As to `CC(=N)NCCC[C@H](N)C(=O)O` [NIO, L-N-5-(1-iminoethyl)ornithine, reference compound], the “OD units drug ± sd” value was 0.103 ± 0.002 OD units at iNOS and 1.89 ± 0.41 OD units in the data set with RAW cells (setting [1]). For the same compound, the “% of control ± sd” value was 4.14 ± 8.74 [3] % of control with eNOS (0.1 mM compound) and 6.25 ± 7.52 [5] % of control in the data set with eNOS (1 mM compound).
